For one series, the system named is Cyp2B6. Nature of the series: qNPA gene expression, rifampicin-treated human primary liver cells. As to conditions: 0-10 μM rifampicin.
A further series deals with Cyp2D6. The description is as above. As to conditions: 0-10 μM rifampicin.
The test system of a further series is Cyp2A337. As to conditions: canine hepatocytes, 0-10 μM rifampicin, qNPA.
The next series deals with Cyp2D15. Nature of the series: qNPA gene expression, rifampicin-treated canine hepatocytes. It is filed as cell-based. As to conditions: 0-10 μM rifampicin.
In a further series the test system is Cyp1A1. The series is described as above. It counts as cell-based. As to conditions: 0-10 μM rifampicin.

With `CO[C@H]1/C=C/O[C@@]2(C)Oc3c(C)c(O)c4c(O)c(c(/C=N/N5CCN(C)CC5)c(O)c4c3C2=O)NC(=O)/C(C)=C\C=C\[C@H](C)[C@H](O)[C@@H](C)[C@@H](O)[C@@H](C)[C@H](OC(C)=O)[C@@H]1C` [rifampicin], the “Cyp2B6 transcript level (enzyme induction)” value in the series with Cyp2B6 was “induced”. Besides, the Cyp2D6 transcript level entry in the series with Cyp2D6 (qNPA) is given as “suppressed”. The “suppression of Cyp2D6” value in the series on Cyp2D6 (qNPA (Panel a of FIG. 27)) is reported as “less than 50%”. In the series with Cyp2A337, the Cyp2A337 gene expression result was “upregualted”. Besides, the Cyp2D15 gene expression entry with Cyp2D15 was “upregualted”. Besides, the Cyp1A1 gene expression result with Cyp1A1 was “upregualted”.

The record behind these values is patent US20080268451A1, “MEASUREMENT OF AN INSOLUBLE ANALYTE IN A SAMPLE” (priority 2007, published 2008).
